In patent US10206908B2, “3-(1H-pyrrolo[3,2-C]pyridin-2-YL)-1H-pyrazolo[3,4-C]pyridines and therapeutic uses thereof” (Samumed, LLC, priority 2015, dated 2019):

What was measured:
Format in all cases: cell-based
[1] = system: Wnt activity (Sp5-Luc reporter, SW480 colon carcinoma cells); assay: Screening assay for Wnt activity: Sp5-Luc reporter gene assay in SW480 colon carcinoma cells; details: Homo sapiens; for EC50: Sp5-Luc reporter, SW480 cells, overnight incubation; for inhibition at 10 µM: SW480, read-out: percent inhibition at 10 μM
How it was run: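 SW480 colon carcinoma cells stably carrying Sp5 promoter (eight TCF/LEF sites)-driven firefly luciferase, plated at 4,000 cells/well in 1% FBS medium and incubated overnight at 37° C. Luminescence normalised to DMSO-only cells; EC50 from four-parameter variable-slope nonlinear regression.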

[2] = system: IL-6 (THP-1 cells); assay: IL-6 inhibition in LPS-stimulated THP-1 monocytes (HTRF); details: Homo sapiens; for EC50: IL-6, THP-1 cells, LPS 500 ng/mL, 22 hours; for inhibition at 10 µM: THP-1, read-out: percent inhibition at 10 μM
How it was run: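 THP-1 cells kept 24 h in 1% FBS medium, exposed to compound 2 h at 37 °C, then stimulated with 500 ng/mL LPS for 22 h. Secreted IL-6 quantified by HTRF (665/620 nm ratio), duplicates. Values normalized to DMSO; EC50 by four-parameter variable-slope regression.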

[3] = system: primary human fibroblasts derived from IPF patients (LL29 cells) treated with TGF-β1; assay: Inhibition of the fibrotic process: αSMA staining in TGF-β1 treated LL29 fibroblasts; details: Fibroblast; for EC50: 96 h, % αSMA positive LL29 cells, TGF-β1 20 ng/mL, 4 days
How it was run: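 Read-out after 4-day incubation: αSMA staining with 1 μM SYTOX green nuclear counterstain (30 min, room temperature). Cells were LL29 primary fibroblasts from IPF patients, in 1% FBS F12, exposed to TGF-β1 with test compound, referenced to TGF-β1/DMSO control wells.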

[4] = system: primary human mesenchymal stem cells (hMSCs); assay: Induction of chondrogenesis in hMSCs (chondrogenic nodules, Rhodamine B/Nile Red); details: 6 days; for EC50: concentration required to induce 50% levels of chondrogenesis vs TGF-β3, read-out: Conc (nM) of 50% TGF-β3 activity; for Emax: relative to TGF-β3 (10 ng/mL) positive control, read-out: Max. Activity as % TGF-β3 activity
Source text: Representative compounds were screened using primary human mesenchymal stem cells (hMSCs) to determine their ability to induce chondrogenesis (process by which cartilage is developed).
Human Mesenchymal Stem Cell Culture: Primary human mesenchymal stem cells (hMSCs) were purchased from Lonza (Walkersville, Md.) and expanded in Mesenchymal Stem Cell Growth Media (Lonza). Cells between passage 3 and 6 were used for the experiments.
Number of nodules in each well was normalized to the average of 3 DMSO treated wells on the same plate using Excel (Microsoft Inc.). The normalized averages (fold change over DMSO) of 3 replicate wells for each compound concentration were calculated. Due to solubility limitations of some of the compounds, curve fitting was incomplete leading to inaccurate EC50 determinations.
Using TGF-β3 as a positive control, the concentration of representative compounds required to induce 50% levels of chondrogenesis is reported. In addition, the maximum activity of each compound and the respective dose that each compound reached maximum chondrogenesis activity is reported.

[5] = system: SW480 colon cancer cells; assay: Cell viability assay (CellTiter-Blue) in SW480 colon cancer cells; details: Homo sapiens; for EC50: 96 h, SW480 cell viability, four days; for inhibition at 10 µM: SW480, read-out: percent inhibition at 10 μM
How it was run: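 Fluorescence from resazurin reduced to resorufin by metabolically active cells was the read-out, taken after ~3 h with CellTiter-Blue.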

SMILES | EC50 [1] | EC50 [2] | EC50 [3] | EC50 [4] | Emax [4] | EC50 [5] | inhibition at 10 µM [5] | inhibition at 10 µM [2] | inhibition at 10 µM [1] | inhibition at 10 µM ([3]; read-out: percent inhibition at 10 μM)
Fc1ccccc1-c1nccc2[nH]c(-c3n[nH]c4cnc(-c5cn[nH]c5)cc34)cc12 [Compound 539, 3-(4-(2-Fluorophenyl)-1H-pyrrolo[3,2-c]pyridin-2-yl)-5-(1H-pyrazol-4-yl)-1H-pyrazolo[3,4-c]pyridine] | 30 nM | 393 nM | 76 nM | 10 nM | 89% | > 10000 nM | 44.4% | – | – | –
CS(=O)(=O)NCc1cc(F)cc(-c2nccc3[nH]c(-c4n[nH]c5cnc(-c6cncc(OCc7ccccc7)c6)cc45)cc23)c1 [Compound 774, N-(3-(2-(5-(5-(Benzyloxy)pyridin-3-yl)-1H-pyrazolo[3,4-c]pyridin-3-yl)-1H-pyrrolo[3,2-c]pyridin-4-yl)-5-fluorobenzyl)methanesulfonamide] | 1510 nM | 1100 nM | 363 nM | 300 nM | 115% | 2450 nM | – | – | – | –
CN1CCN(c2nccc3[nH]c(-c4n[nH]c5cnc(-c6cncc(CN7CCC(F)(F)C7)c6)cc45)cc23)CC1 [Compound 250, 5-(5-((3,3-Difluoropyrrolidin-1-yl)methyl)pyridin-3-yl)-3-(4-(4-methylpiperazin-1-yl)-1H-pyrrolo[3,2-c]pyridin-2-yl)-1H-pyrazolo[3,4-c]pyridine] | 1100 nM | 323 nM | 641 nM | 10 nM | 76% | 2370 nM | – | – | – | –
Cc1ccncc1-c1cc2c(-c3cc4c(-c5ccc(F)cc5)nccc4[nH]3)n[nH]c2cn1 [Compound 33, 3-(4-(4-Fluorophenyl)-1H-pyrrolo[3,2-c]pyridin-2-yl)-5-(4-methylpyridin-3-yl)-1H-pyrazolo[3,4-c]pyridine] | 595 nM | 489 nM | 266 nM | – | 24% | 716 nM | – | – | – | –
CC(C)(C)CC(=O)Nc1cncc(-c2cc3c(-c4cc5cnccc5[nH]4)n[nH]c3cn2)c1 [Compound 268, N-(5-(3-(1H-Pyrrolo[3,2-c]pyridin-2-yl)-1H-pyrazolo[3,4-c]pyridin-5-yl)pyridin-3-yl)-3,3-dimethylbutanamide] | 1890 nM | 3460 nM | 4010 nM | 10 nM | 59% | 5040 nM | – | – | – | –
CN(C)c1cncc(-c2cc3c(-c4cc5c(-c6cccs6)nccc5[nH]4)n[nH]c3cn2)c1 [Compound 343, N,N-Dimethyl-5-(3-(4-(thiophen-2-yl)-1H-pyrrolo[3,2-c]pyridin-2-yl)-1H-pyrazolo[3,4-c]pyridin-5-yl)pyridin-3-amine] | 1490 nM | > 10000 nM | 694 nM | 300 nM | 51% | 611 nM | – | 0% | – | –
CN(C)CCOc1cncc(-c2cc3c(-c4cc5c(-c6ccc(F)cc6)nccc5[nH]4)n[nH]c3cn2)c1 [Compound 531, 2-((5-(3-(4-(4-Fluorophenyl)-1H-pyrrolo[3,2-c]pyridin-2-yl)-1H-pyrazolo[3,4-c]pyridin-5-yl)pyridin-3-yl)oxy)-N,N-dimethylethan-1-amine] | 3200 nM | 3500 nM | 920 nM | 900 nM | 113% | 3590 nM | – | – | – | –
CS(=O)(=O)NCc1cc(F)cc(-c2nccc3[nH]c(-c4n[nH]c5cnc(-c6cncc(NC(=O)C7CCC7)c6)cc45)cc23)c1 [Compound 497, N-(5-(3-(4-(3-Fluoro-5-(methylsulfonamidomethyl)phenyl)-1H-pyrrolo[3,2-c]pyridin-2-yl)-1H-pyrazolo[3,4-c]pyridin-5-yl)pyridin-3-yl)cyclobutanecarboxamide] | > 10000 nM | > 10000 nM | > 10000 nM | – | 16% | > 10000 nM | 12.8% | 38.8% | 27.2% | 0%
c1ccc(CNCc2cncc(-c3cc4c(-c5cc6c(-c7ccncc7)nccc6[nH]5)n[nH]c4cn3)c2)cc1 [Compound 136, N-Benzyl-1-(5-(3-(4-(pyridin-4-yl)-1H-pyrrolo[3,2-c]pyridin-2-yl)-1H-pyrazolo[3,4-c]pyridin-5-yl)pyridin-3-yl)methanamine] | > 10000 nM | > 10000 nM | 560 nM | 900 nM | 67% | > 10000 nM | 23% | 0% | 50.4% | –
CN(C)Cc1cncc(-c2cc3c(-c4cc5c(-c6cccc(F)c6)nccc5[nH]4)n[nH]c3cn2)c1 [Compound 13, 1-(5-(3-(4-(3-Fluorophenyl)-1H-pyrrolo[3,2-c]pyridin-2-yl)-1H-pyrazolo[3,4-c]pyridin-5-yl)pyridin-3-yl)-N,N-dimethylmethanamine] | 1850 nM | 425 nM | 9 nM | 30 nM | 60% | 1730 nM | – | – | – | –
CCC(=O)Nc1cncc(-c2cc3c(-c4cc5c(N6CCN(C)CC6)nccc5[nH]4)n[nH]c3cn2)c1 [Compound 225, N-(5-(3-(4-(4-Methylpiperazin-1-yl)-1H-pyrrolo[3,2-c]pyridin-2-yl)-1H-pyrazolo[3,4-c]pyridin-5-yl)pyridin-3-yl)propionamide] | > 10000 nM | 743 nM | 5300 nM | 30 nM | 70% | > 10000 nM | 7.9% | – | 52.4% | –
c1csc(-c2nccc3[nH]c(-c4n[nH]c5cnc(-c6cncc(CN7CCCCC7)c6)cc45)cc23)c1 [Compound 351, 5-(5-(Piperidin-1-ylmethyl)pyridin-3-yl)-3-(4-(thiophen-2-yl)-1H-pyrrolo[3,2-c]pyridin-2-yl)-1H-pyrazolo[3,4-c]pyridine] | 3650 nM | > 10000 nM | 1990 nM | 10 nM | 59% | 2400 nM | – | 0% | – | –
CC(C)CC(=O)Nc1cncc(-c2cc3c(-c4cc5c(-c6ccc(F)cc6)nccc5[nH]4)n[nH]c3cn2)c1 [Compound 30, N-(5-(3-(4-(4-Fluorophenyl)-1H-pyrrolo[3,2-c]pyridin-2-yl)-1H-pyrazolo[3,4-c]pyridin-5-yl)pyridin-3-yl)-3-methylbutanamide] | 289 nM | 669 nM | 356 nM | 900 nM | 71% | 298 nM | – | – | – | –
O=C(Nc1cncc(-c2cc3c(-c4cc5c(-c6ccc(F)cc6)nccc5[nH]4)n[nH]c3cn2)c1)C1CC1 [Compound 48, N-(5-(3-(4-(4-Fluorophenyl)-1H-pyrrolo[3,2-c]pyridin-2-yl)-1H-pyrazolo[3,4-c]pyridin-5-yl)pyridin-3-yl)cyclopropanecarboxamide] | 844 nM | 1050 nM | 404 nM | 30 nM | 96% | 666 nM | – | – | – | –
O=C(Nc1cncc(-c2cc3c(-c4cc5cnccc5[nH]4)n[nH]c3cn2)c1)C1CC1 [Compound 272, N-(5-(3-(1H-Pyrrolo[3,2-c]pyridin-2-yl)-1H-pyrazolo[3,4-c]pyridin-5-yl)pyridin-3-yl)cyclopropanecarboxamide] | 1540 nM | > 10000 nM | 1900 nM | 30 nM | 58% | > 10000 nM | 18.6% | 9.6% | – | –
O=C(Nc1cncc(-c2cc3c(-c4cc5c(N6CCCCC6)nccc5[nH]4)n[nH]c3cn2)c1)C1CCC1 [Compound 189, N-(5-(3-(4-(Piperidin-1-yl)-1H-pyrrolo[3,2-c]pyridin-2-yl)-1H-pyrazolo[3,4-c]pyridin-5-yl)pyridin-3-yl)cyclobutanecarboxamide] | 4070 nM | 3430 nM | 1220 nM | – | 42% | 4890 nM | – | – | – | –
CCNCc1cncc(-c2cc3c(-c4cc5c(N6CCCCC6)nccc5[nH]4)n[nH]c3cn2)c1 [Compound 174, N-((5-(3-(4-(Piperidin-1-yl)-1H-pyrrolo[3,2-c]pyridin-2-yl)-1H-pyrazolo[3,4-c]pyridin-5-yl)pyridin-3-yl)methyl)ethanamine] | 2770 nM | 1020 nM | 1200 nM | 10 nM | 183% | 2370 nM | – | – | – | –
